pIC50: −log10 of the molar value. Starred links: 1 amine or outer side, 2 acyl side, 3 side chain; linkers in the order of their positions; H or OH if unused. Positions of bridges follow the written chain, without caps; N, C: chain ends. Non-standard residues stand in square brackets, D forms with d. Residues, ends and D or L forms follow the SMILES beside them. *: point of attachment. Ileψ(thiazoline)Cys = CC[C@H](C)[C@H](N)C1=N[C@H](C(=O)*)CS1; X2 = CCC(=O)CC(O)C[C@@H](C)C[C@H](N[*:1])C(=O)[*:2]; Alaψ(CH2NMeCH2CH2OH) = C[C@@H](CN(C)CCO)N*; dOrn = NCCC[C@@H](N)C(=O)O; X1 = CCCCCCCCC(C)C(=O)*; Aib = CC(C)(N)C(=O)O
What was measured:
[1] = in vitro; settings: human
[2] = tested on: C. albicans wild-type strain SC5314 biofilm formation; test: microbe, parasite or virus in culture; type: cell-based, Candida albicans; settings: for pIC50: SC5314, 24 h; for Inhibition of biofilm formation: NCI Natural set, dose response
[3] = tested on: C. albicans tet-NRG1 strain filamentation; type: cell-based, Candida albicans; settings: YPD plus DOX, dose response
[4] = tested on: Human hepatocellular carcinoma (HepG2) cells
[5] = tested on: C. albicans; settings: cited from earlier work

## N#Cc1cn([C@@H]2O[C@H](CO)[C@@H](O)[C@H]2O)c2ncnc(N)c12 [Compound 23, Vengicide (Unamycin B, Toyocamycin)]
[1]
  CC50: < 1560 nM
[2]; Candida albicans
  pIC50: 5.98

## CC[C@H](C)[C@H](N)C1=N[C@H](C(=O)N[C@@H](CC(C)C)C(=O)N[C@H](CCC(=O)O)C(=O)N[C@H](C(=O)N[C@H]2CCCCNC(=O)[C@H](CC(N)=O)NC(=O)[C@@H](CC(=O)O)NC(=O)[C@H](Cc3c[nH]cn3)NC(=O)[C@@H](Cc3ccccc3)NC(=O)[C@H]([C@@H](C)CC)NC(=O)[C@@H](CCCN)NC2=O)[C@@H](C)CC)CS1 [Compound 4, Bacitracin] ({Ileψ(thiazoline)Cys}-L[dE]IK[dOrn]I[dF]H[dD]N; lactam 4-C; N-terminus assumed)
[2]
  Inhibition of biofilm formation: inhibited biofilm formation only
  pIC50: 5.67

## CC(=O)O[C@@H]1C[C@H]2O[C@@H]3C=C(C)CC[C@]3(C)[C@]1(C)[C@]21CO1 [Compound 1, Trichoderonin]
[3]
  Inhibition of filamentation: inhibited filamentation in a dose-response manner

## CCN(CC)CCN1c2ccccc2Sc2ccc3ccccc3c21 [Compound 14, 2-benzo[a]phenothiazin-12-yl-N,N-diethylethanamine]
[2]; Candida albicans
  pIC50: 5.42

## CCCCCCCCCCCCCCC[C@@H](O)C[N+](C)(C)CCO [Compound 21, 2-hydroxyethyl-[(2R)-2-hydroxyheptadecyl]-dimethylazanium;iodide]
[4]
  CC50: 10000 nM

## CC(C)[C@@H]1NC(=O)[C@H](C)OC(=O)[C@@H](C(C)C)NC(=O)[C@@H](C(C)C)OC(=O)[C@H](C(C)C)NC(=O)[C@H](C)OC(=O)[C@@H](C(C)C)NC(=O)[C@@H](C(C)C)OC(=O)[C@H](C(C)C)NC(=O)[C@H](C)OC(=O)[C@@H](C(C)C)NC(=O)[C@@H](C(C)C)OC1=O [Compound 6, Valinomycin]
[1]
  CC50: 2870 nM
[2]
  Inhibition of biofilm formation: inhibited biofilm formation only
[5]; C. albicans, ref Watanabe, Azuma, Igarashi & Ooshima, 2005
  Inhibition of hyphal growth: inhibit hyphal growth

## COc1cc2cc(C(=O)N3CC(COS(C)(=O)=O)c4ccc(O)cc43)[nH]c2c(OC)c1OC (stereo not drawn) [Compound 27, 6-Hydroxy-3-((methanesulfonyloxy) Methyl)-1-((5,6,7-trimethoxyindol-2-yl)carbonyl)indoline]
[1]
  CC50: < 1560 nM
[2]; Candida albicans
  pIC50: 6.31

## COc1ccc(C[C@H]2NC[C@H](O)[C@H]2OC(C)=O)cc1 [Compound 2, Anisomycin]
[2]
  Inhibition of biofilm formation: inhibited biofilm formation only

## CCCCCCCCC(C)C(=O)N1CCC[C@H]1C(=O)N[C@@H](C[C@H](C)CC(O)CC(=O)CC)C(=O)N[C@@H](C)C(=O)NC(C)(C)C(=O)NC(C)(C)C(=O)N[C@H](C(=O)N[C@@H](C)C(=O)NC(C)(C)C(=O)NC(C)(C)C(=O)N[C@@H](C)CN(C)CCO)C(C)C (stereo partly drawn) [Compound 19, Trichopolyn-B] (X1-P[X2]A[Aib][Aib]VA[Aib][Aib]-{Alaψ(CH2NMeCH2CH2OH)}; N-terminus and C-terminus assumed)
[1]
  CC50: 2990 nM
[2]
  pIC50: 6.18

## CO[C@H]1C[C@@H]2CC[C@@H](C)[C@@](O)(O2)C(=O)C(=O)N2CCCC[C@H]2C(=O)O[C@H]([C@H](C)C[C@@H]2CC[C@@H](O)[C@H](OC)C2)CC(=O)[C@H](C)/C=C(\C)[C@@H](O)[C@@H](OC)C(=O)[C@H](C)C[C@H](C)/C=C/C=C/C=C/1C [Compound 5, Rapamune (rapamycin, sirolimus)]
[3]
  Inhibition of filamentation: inhibited filamentation in a dose-response manner
[2]; Candida albicans
  pIC50: 6.29
[5]; most liquid hypha-inducing media, ref Bastidas, Heitman & Cardenas, 2009
  Effect on the morphogenic transition: no effect on the morphogenic transition

## CCCCCCCCCCCCCCC(O)C[N+](C)(CCO)CCO (stereo not drawn) [Compound 29, Hexadecanaminium, 2-hydroxy-N,N-bis(2-hydroxyethyl)-N-methyl-, chloride]
[4]
  CC50: 13900 nM

## CC1OC(CC(=O)O)Cc2c(O)c3c(c(O)c21)C(=O)C=C(C1=CC(=O)c2c(O)c4c(c(O)c2C1=O)CC(CC(=O)O)OC4C)C3=O (stereo not drawn) [Compound 13, 2-[7-[3-(carboxymethyl)-5,10-dihydroxy-1-methyl-6,9-dioxo-3,4-dihydro-1H-benzo[g]isochromen-7-yl]-5,10-dihydroxy-1-methyl-6,9-dioxo-3,4-dihydro-1H-benzo[g]isochromen-3-yl]acetic acid]
[2]; Candida albicans
  pIC50: 5.48

## CC[C@H](C)[C@H](N)C1=N[C@H](C(=O)N[C@@H](CC(C)C)C(=O)N[C@H](CCC(=O)O)C(=O)N[C@H](C(=O)N[C@H]2CCCCNC(=O)[C@H](CC(N)=O)NC(=O)[C@@H](CC(=O)O)NC(=O)[C@H](Cc3cnc[nH]3)NC(=O)[C@@H](Cc3ccccc3)NC(=O)[C@H]([C@@H](C)CC)NC(=O)[C@@H](CCCN)NC2=O)[C@@H](C)CC)CS1 [Compound 4, Bacitracin] ({Ileψ(thiazoline)Cys}-L[dE]IK[dOrn]I[dF]H[dD]N; lactam 4-C (inferred))
[1]
  CC50 at 24 hr: > 100000 nM

## Nanaomycin [Compound 3]
[3]
  Inhibition of filamentation: inhibited filamentation in a dose-response manner

## CC(NCCN(C)C)C1CCC2C3CCc4cc(O)ccc4C3CCC12C (stereo not drawn) [Compound 8, 17-[1-[2-(dimethylamino)ethylamino]ethyl]-13-methyl-6,7,8,9,11,12,14,15, 16,17-decahydrocyclopenta[a]phenanthren-3-ol]
[1]
  CC50 at 24 h: 8080 nM
[2]; Candida albicans
  pIC50: 8.01

Source: publication PMC3988658 (Pathogens and disease, 2014)
